Laboratory results reported in article PMC4363860 (Scientific Reports, 2015).
Where two headings read alike, the source gives them in different places.

Experiments:
E. coli = assay: MIC and reciprocal sensitization (Fig. 2a,b; Suppl. Figs S2, S3); assay type: cell-based, Escherichia coli
Klebsiella = assay: MIC (Suppl. Figs S2, S3); assay type: cell-based
S. stanley 7308 = assay: Chemo-sensitization (Suppl. Table S1); assay type: cell-based, Salmonella; settings: for MIC: Salmonella enterica, 7308, read-out: MIC of rifampin in presence of C10KKc12K, S. stanley 7308
[1] = Pharmacokinetic study, plasma concentrations by LC-MS; assay type: in vivo; settings: mice, oral 20 mg/Kg, N = 2 mice/time point, mean ± s.d.
Method: Drugs blood concentrations were determined by LC-MS using calibrated curves essentially as described[5][9]. […] At specified time intervals mice were euthanized (CO2 asphyxiation) and blood samples collected from vena cava (N = 2 mice/time point). For analysis, samples were centrifuged (2 min, 6000 × g), 200 μl plasma were mixed with 0.5 ml extraction buffer (50% acetonitrile (ACN): 50% methanol) incubated (30 min on plate shaker at 200 rpm, RT), centrifuged (2 min, 14000 × g) and 300 μl supernatant diluted twofold in DDW and analyzed by LC-MS (5 μl injected to Waters Xevo G2 Tof/ACQUITY UPLC H-Class system). Flow rate, 0.5 ml/min. Run time, 5 min. Mobile phase, ACN/DDW combination containing 0.1% formic acid using an ACQUITY UPLC BEH column (C18 1.7 μm) and eluted with a 0–90% ACN gradient. Quantification was by MS detection in positive ionization mode using an identical procedure that was performed in mouse whole blood in order to establish standard calibration curves.

K. pneumoniae = assay: Efficacy, peritonitis-sepsis model in neutropenic mice; assay type: in vivo, Klebsiella pneumoniae; settings: IP K. pneumoniae 3 × 10^7 CFU, rifampin oral 0.45 mg/mouse or OAK SC 0.3 mg/mouse, 2 experiments, 10 mice/group, vehicle 20 ± 10%
Method: Animal studies were performed using male ICR mice (weight range, 23 ± 2 g) obtained from Harlan Laboratories (Rehovot, Israel). Procedures, care and handling of animals were reviewed and approved by Technion Animal Care and Use Committee.
Mice were rendered neutropenic by intraperitoneal (IP) injection of cyclophosphamide (150 and 100 mg/Kg on days 0 and 3, respectively). The procedure was confirmed to result in severe neutropenia by day 4, at which time infection was induced. The peritonitis-sepsis model was used whereby infection was obtained after IP injection of a logarithmic-phase culture of K. pneumoniae (3 × 10^7 CFU/mice in 0.3 ml PBS). […] Mice survival was monitored for up to 7 days post-treatment. Survival data were obtained from 2 independent experiments (n = 10 mice/group/experiment). Statistical analysis was performed using a paired t test were α equals 0.05.

E. coli 35218 = assay: Chemo-sensitization (Suppl. Table S1); settings: for MIC: Escherichia coli, 35218, read-out: MIC of rifampin in presence of C10KKc12K, E. coli 35218
E. coli 14182 = assay: Chemo-sensitization (Suppl. Table S1)
E. coli 16327 = assay: Chemo-sensitization (Suppl. Table S1)
E. coli 16329 = assay: Chemo-sensitization (Suppl. Table S1)
E. coli 14384 = assay: Chemo-sensitization (Suppl. Table S1); settings: for MIC: Escherichia coli, 14384, read-out: MIC of rifampin in presence of C10KKc12K, E. coli 14384
S. Typhimurium 14028 = assay: Chemo-sensitization (Suppl. Table S1); settings: for MIC: Salmonella enterica, TYPHIMURIUM
K. pneumoniae 1287 = assay: Chemo-sensitization (Suppl. Table S1)

Structure (SMILES): CO[C@H]1/C=C/O[C@@]2(C)Oc3c(C)c(O)c4c(O)c(c(/C=N/N5CCN(C)CC5)c(O)c4c3C2=O)NC(=O)/C(C)=C\C=C\[C@H](C)[C@H](O)[C@@H](C)[C@@H](O)[C@@H](C)[C@H](OC(C)=O)[C@@H]1C [rifampin]
- standalone antibiotic MIC (E. coli): 16 µg/mL
- standalone antibiotic MIC (Klebsiella): 32 µg/mL
- SF, sensitization factor, rifampin with C10KKc12K (S. stanley 7308; S. stanley 7308): 2000
- MIC (S. stanley 7308; OAK 0 µg/ml): 16 µg/mL
- MIC (S. stanley 7308; OAK 1.25 µg/ml): 16 µg/mL
- MIC (S. stanley 7308; OAK 2.5 µg/ml): 0.125 µg/mL
- MIC (S. stanley 7308; OAK 5 µg/ml): 0.008 µg/mL
- plasma concentration reached after oral administration [1]: 13260 ± 2250 ng/mL
- survivors at day 7, single dose monotherapy (K. pneumoniae): 10%
- SF, sensitization factor, rifampin with C10KKc12K (E. coli 35218; E. coli 35218): 258
- MIC (E. coli 35218; OAK 0 µg/ml): 8 µg/mL
- MIC (E. coli 35218; OAK 1.25 µg/ml): 0.5 µg/mL
- MIC (E. coli 35218; OAK 5 µg/ml): 0.031 µg/mL
- SF, sensitization factor, rifampin with C10KKc12K (E. coli 14182; E. coli 14182): 516
- SF, sensitization factor, rifampin with C12(ω7)KKc12K (E. coli 14182; E. coli 14182): > 800
- MIC (E. coli 14182; Escherichia coli, 14182, read-out: MIC of rifampin in presence of C10KKc12K, E. coli 14182, OAK 0 µg/ml): 16 µg/mL
- MIC (E. coli 14182; Escherichia coli, 14182, read-out: MIC of rifampin in presence of C10KKc12K, E. coli 14182, OAK 1.25 µg/ml): 4 µg/mL
- MIC (E. coli 14182; Escherichia coli, 14182, read-out: MIC of rifampin in presence of C10KKc12K, E. coli 14182, OAK 2.5 µg/ml): 0.125 µg/mL
- MIC (E. coli 14182; Escherichia coli, 14182, read-out: MIC of rifampin in presence of C10KKc12K, E. coli 14182, OAK 5 µg/ml): 0.031 µg/mL
- MIC (E. coli 14182; Escherichia coli, 14182, read-out: MIC of rifampin in presence of C12(ω7)KKc12K, E. coli 14182, OAK 0 µg/ml): 8 µg/mL
- MIC (E. coli 14182; Escherichia coli, 14182, read-out: MIC of rifampin in presence of C12(ω7)KKc12K, E. coli 14182, OAK 1.25 µg/ml): 8 µg/mL
- MIC (E. coli 14182; Escherichia coli, 14182, read-out: MIC of rifampin in presence of C12(ω7)KKc12K, E. coli 14182, OAK 2.5 µg/ml): 0.031 µg/mL
- MIC (E. coli 14182; Escherichia coli, 14182, read-out: MIC of rifampin in presence of C12(ω7)KKc12K, E. coli 14182, OAK 5 µg/ml): < 0.01 µg/mL
- SF, sensitization factor, rifampin with C10KKc12K (E. coli 16327; E. coli 16327): 2000
- SF, sensitization factor, rifampin with C12(ω7)KKc12K (E. coli 16327; E. coli 16327): > 3200
- MIC (E. coli 16327; Escherichia coli, 16327, read-out: MIC of rifampin in presence of C10KKc12K, E. coli 16327, OAK 0 µg/ml): 16 µg/mL
- MIC (E. coli 16327; Escherichia coli, 16327, read-out: MIC of rifampin in presence of C10KKc12K, E. coli 16327, OAK 1.25 µg/ml): 0.5 µg/mL
- MIC (E. coli 16327; Escherichia coli, 16327, read-out: MIC of rifampin in presence of C10KKc12K, E. coli 16327, OAK 2.5 µg/ml): 0.031 µg/mL
- MIC (E. coli 16327; Escherichia coli, 16327, read-out: MIC of rifampin in presence of C10KKc12K, E. coli 16327, OAK 5 µg/ml): 0.008 µg/mL
- MIC (E. coli 16327; Escherichia coli, 16327, read-out: MIC of rifampin in presence of C12(ω7)KKc12K, E. coli 16327, OAK 0 µg/ml): 16 to 32 µg/mL
- MIC (E. coli 16327; Escherichia coli, 16327, read-out: MIC of rifampin in presence of C12(ω7)KKc12K, E. coli 16327, OAK 1.25 µg/ml): 8 µg/mL
- MIC (E. coli 16327; Escherichia coli, 16327, read-out: MIC of rifampin in presence of C12(ω7)KKc12K, E. coli 16327, OAK 2.5 µg/ml): < 0.01 µg/mL
- MIC (E. coli 16327; Escherichia coli, 16327, read-out: MIC of rifampin in presence of C12(ω7)KKc12K, E. coli 16327, OAK 5 µg/ml): < 0.01 µg/mL
- SF, sensitization factor, rifampin with C10KKc12K (E. coli 16329; E. coli 16329): 2000
- SF, sensitization factor, rifampin with C12(ω7)KKc12K (E. coli 16329; E. coli 16329): 2000
- MIC (E. coli 16329; Escherichia coli, 16329, read-out: MIC of rifampin in presence of C10KKc12K, E. coli 16329, OAK 0 µg/ml): 16 µg/mL
- MIC (E. coli 16329; Escherichia coli, 16329, read-out: MIC of rifampin in presence of C10KKc12K, E. coli 16329, OAK 1.25 µg/ml): 0.5 µg/mL
- MIC (E. coli 16329; Escherichia coli, 16329, read-out: MIC of rifampin in presence of C10KKc12K, E. coli 16329, OAK 5 µg/ml): 0.008 µg/mL
- MIC (E. coli 16329; Escherichia coli, 16329, read-out: MIC of rifampin in presence of C12(ω7)KKc12K, E. coli 16329, OAK 0 µg/ml): 16 µg/mL
- MIC (E. coli 16329; Escherichia coli, 16329, read-out: MIC of rifampin in presence of C12(ω7)KKc12K, E. coli 16329, OAK 1.25 µg/ml): 8 µg/mL
- MIC (E. coli 16329; Escherichia coli, 16329, read-out: MIC of rifampin in presence of C12(ω7)KKc12K, E. coli 16329, OAK 2.5 µg/ml): 0.031 µg/mL
- MIC (E. coli 16329; Escherichia coli, 16329, read-out: MIC of rifampin in presence of C12(ω7)KKc12K, E. coli 16329, OAK 5 µg/ml): 0.008 µg/mL
- SF, sensitization factor, rifampin with C10KKc12K (E. coli 14384; E. coli 14384): 258
- MIC (E. coli 14384; OAK 0 µg/ml): 8 µg/mL
- MIC (E. coli 14384; OAK 1.25 µg/ml): 0.5 µg/mL
- MIC (E. coli 14384; OAK 2.5 µg/ml): 0.125 µg/mL
- MIC (E. coli 14384; OAK 5 µg/ml): 0.031 µg/mL
- SF, sensitization factor, rifampin with C10KKc12K (S. Typhimurium 14028; S. Typhimurium 14028): 2000
- SF, sensitization factor, rifampin with C12(ω7)KKc12K (S. Typhimurium 14028; S. Typhimurium 14028): 2667
- MIC (S. Typhimurium 14028; read-out: MIC of rifampin in presence of C10KKc12K, S. Typhimurium 14028, OAK 0 µg/ml): 16 µg/mL
- MIC (S. Typhimurium 14028; read-out: MIC of rifampin in presence of C10KKc12K, S. Typhimurium 14028, OAK 1.25 µg/ml): 8 µg/mL
- MIC (S. Typhimurium 14028; read-out: MIC of rifampin in presence of C10KKc12K, S. Typhimurium 14028, OAK 5 µg/ml): 0.008 µg/mL
- MIC (S. Typhimurium 14028; read-out: MIC of rifampin in presence of C12(ω7)KKc12K, S. Typhimurium 14028, OAK 0 µg/ml): 16 µg/mL
- MIC (S. Typhimurium 14028; read-out: MIC of rifampin in presence of C12(ω7)KKc12K, S. Typhimurium 14028, OAK 1.25 µg/ml): 8 µg/mL
- MIC (S. Typhimurium 14028; read-out: MIC of rifampin in presence of C12(ω7)KKc12K, S. Typhimurium 14028, OAK 2.5 µg/ml): 0.016 µg/mL
- MIC (S. Typhimurium 14028; read-out: MIC of rifampin in presence of C12(ω7)KKc12K, S. Typhimurium 14028, OAK 5 µg/ml): 0.006 µg/mL
- SF, sensitization factor, rifampin with C12(ω7)KKc12K (K. pneumoniae 1287; K. pneumoniae 1287): 5333
- MIC (K. pneumoniae 1287; Klebsiella pneumoniae, 1287, read-out: MIC of rifampin in presence of C10KKc12K, K. pneumoniae 1287, OAK 1.25 µg/ml): 8 µg/mL
- MIC (K. pneumoniae 1287; Klebsiella pneumoniae, 1287, read-out: MIC of rifampin in presence of C10KKc12K, K. pneumoniae 1287, OAK 2.5 µg/ml): 0.031 µg/mL
- MIC (K. pneumoniae 1287; Klebsiella pneumoniae, 1287, read-out: MIC of rifampin in presence of C12(ω7)KKc12K, K. pneumoniae 1287, OAK 1.25 µg/ml): 4 µg/mL
- MIC (K. pneumoniae 1287; Klebsiella pneumoniae, 1287, read-out: MIC of rifampin in presence of C12(ω7)KKc12K, K. pneumoniae 1287, OAK 2.5 µg/ml): 0.1 µg/mL
- MIC (K. pneumoniae 1287; Klebsiella pneumoniae, 1287, read-out: MIC of rifampin in presence of C12(ω7)KKc12K, K. pneumoniae 1287, OAK 5 µg/ml): 0.006 µg/mL
